Assay results taken from BindingDB's records for doi:10.1016/j.bmc.2017.06.018 (Chungnam National University, 2017).

Assay: Inhibition of IL-5 in mouse Y16 cells assessed as reduction in cell proliferation after 48 hrs by WST-1 assay

| Compound | IC50 [µM] |
| --- | --- |
| COc1ccc(CC(=O)N(CCO)Cc2coc3cccc(OCC4CCCCC4)c3c2=O)cc1 | 17.9 |
| CC(C)(C)CCOc1cccc2occ(CN(CCO)C(=O)Cc3ccccc3)c(=O)c12 | > 30 |
| CC(C)CCOc1cccc2occ(CN(CCO)C(=O)Cc3ccccc3)c(=O)c12 | > 30 |
| O=c1c(-c2ccc(O[C@H]3O[C@@H](CO)[C@H](O)[C@@H](O)[C@@H]3O)cc2)coc2cc(O)cc(O)c12 | 10.6 |
| O=C(Cc1ccccc1)N(CCO)Cc1coc2cccc(OCC3CCCCC3)c2c1=O | 10 |
| O=C(Nc1ccccc1)N(CCO)Cc1coc2cccc(OCC3CCCCC3)c2c1=O | 17 |
| O=C(NC1CCCCC1)N(CCO)Cc1coc2cccc(OCC3CCCCC3)c2c1=O | 17 |
| O=C(Nc1ccc(Cl)cc1)N(CCO)Cc1coc2cccc(OCC3CCCCC3)c2c1=O | > 30 |
| COc1ccc(NC(=O)N(CCO)Cc2coc3cccc(OCC4CCCCC4)c3c2=O)cc1 | 18 |
| CC(C)(C)CCOc1cccc2occ(CN(CCO)C(=O)Nc3ccccc3)c(=O)c12 | > 30 |
| CC(C)CCOc1cccc2occ(CN(CCO)C(=O)Nc3ccccc3)c(=O)c12 | > 30 |
| O=C(Oc1ccccc1)N(CCO)Cc1coc2cccc(OCC3CCCCC3)c2c1=O | 25 |
| CC(C)(C)CCOc1cccc2occ(CN(CCO)C(=O)Oc3ccccc3)c(=O)c12 | > 30 |
| CC(C)CCOc1cccc2occ(CN(CCO)C(=O)Oc3ccccc3)c(=O)c12 | > 30 |

Now from value to compound:

| IC50 [µM] | Compound |
| --- | --- |
| 25.3 | CCCC(=O)N(CCO)Cc1coc2cccc(OCC3CCCCC3)c2c1=O |
| > 30 | CCCNC(=O)N(CCO)Cc1coc2cccc(OCC3CCCCC3)c2c1=O |
| > 30 | CC(C)NC(=O)N(CCO)Cc1coc2cccc(OCC3CCCCC3)c2c1=O |
| 18 | O=C(NCc1ccccc1)N(CCO)Cc1coc2cccc(OCC3CCCCC3)c2c1=O |
| 15 | O=C(NCCCc1ccccc1)N(CCO)Cc1coc2cccc(OCC3CCCCC3)c2c1=O |
| 20.2 | CCOC(=O)N(CCO)Cc1coc2cccc(OCC3CCCCC3)c2c1=O |
| 25.2 | CCC(=O)N(CCO)Cc1coc2cccc(OCC3CCCCC3)c2c1=O |
| > 30 | CCNC(=O)N(CCO)Cc1coc2cccc(OCC3CCCCC3)c2c1=O |
